The target of experiment [1] is T1, rat small intestinal α-glucosidase.
T1 construct: gene Mgam; native; crude supernatant of commercial rat intestinal acetone powder (Sigma-Aldrich), not purified; pNPG as substrate
In words: pNPG hydrolysis, absorbance […] nm. In kind it is biochemical. Conditions: crude rat intestinal acetone powder supernatant; pNPG substrate; 0.1 M phosphate pH 6.9, 37 °C.

Experiment [2] deals with T2, maltase (rat small intestinal).
T2 construct: gene Mgam; native; crude supernatant of commercial rat intestinal acetone powder (Sigma-Aldrich), not purified; maltose as substrate
In words: liberated glucose by glucose oxidase method. In kind it is biochemical. Conditions: crude rat intestinal acetone powder supernatant; maltose substrate; 0.1 M phosphate pH 7.0. The source says:
liberated glucose by glucose oxidase method on maltase (rat small intestinal)

The structures appear in SMILES notation.

With `COc1ccc([C@@H]2CC(=O)c3c(O)cc(O[C@@H]4O[C@H](CO[C@@H]5O[C@@H](C)[C@H](O)[C@@H](O)[C@H]5O)[C@@H](O)[C@H](O)[C@H]4O)cc3O2)cc1O` [hesperidin], the figures for the HP in experiment [1] and in experiment [2] were 0.99 ± 0.14 mg/mL and 1.04 ± 0.03 mg/mL, respectively.

The record behind these values is paper PMC11679778, “Jeju Citrus (Citrus unshiu) Leaf Extract and Hesperidin Inhibit Small Intestinal α-Glucosidase Activities In Vitro and Postprandial Hyperglycemia in Animal Model” (International Journal of Molecular Sciences, 2024).
